pEC50: −log10 of the molar value.
Tested on: H4 cells, SNCA 5'UTR luciferase reporter translation
Experiment: alpha-synuclein stem-loop translation blockers – luminescence, H4 neuroglioblastoma cells, dose confirmation, confirmation (AID 2454)

**Q.** COc1ccc(O)c2c(=O)c3c(OC)cc4c(c3oc12)C1C=COC1O4 (stereo unspecified) was tested. Which pEC50 did it give?
**A.** 6.24

— PubChem BioAssay AID2454 (Broad Institute, 2010)
